{"source": "patent US20090311237A1", "about": "“Combination therapy using a soluble hyaluronidase and a bisphosphonate” (priority 2008, published 2009)", "assay": "Pharmacokinetics of ZA in pig serum after IV or SC infusion with or without rHuPH20 (LC-MS-MS, non-compartmental analysis)", "type": "in vivo", "conditions": "female, Yorkshire, pig, serum, […], pig; for bioavailability / Tmax / half-life / Vd/F: sc, SC ZA […], no rHuPH20 (Study Group 2), n=4; for concentration at 0.05 h / concentration at 5 min / concentration at 0.333 h / concentration at 0.5 h / concentration at 1 h: subcutaneous, Study Group 2, SC, ZA […], rHuPH20 0 U/mL, read-out: Zoledronic Acid Serum Concentration", "method": "A pharmacokinetic study of zoledronic acid (ZA) co-administered with rHuPH20 in female Yorkshire swines was conducted. The primary objective of the study was to determine the bioavailability of zoledronic acid dosed via subcutaneous (SC) co-administration with human recombinant hyaluronidase PH20 (rHuPH20) and to compare the overall exposure to an equivalent IV dose.\nAnimals in Study Group 1 were dosed with 0.15 mg/kg ZA given via a 20-minute IV infusion. Animals in Study Groups 2 and 3 were dosed subcutaneously (SC) with 0.15 mg/kg ZA without and with rHuPH20, respectively, in different SC delivery volumes.\nFollowing ZA dose administration, serial blood samples were collected via vascular access ports (VAPs) for serum preparation and determination of ZA concentrations. Blood collection times were at 1, 3, 5, 10, 15, 20, 30, 45, and 60 minutes, and at 1.5, 2, 3, 4, 6, 8, 10, 24, 48, and 72 hours post dose. Urine samples were also collected to compare excretion characteristics between IV and SC routes of administration. Collection times for urine were at 15 minutes before dosing (−15 min.), continuously from dose initiation to 2 hours post dose, and at 4, 6, 8, and 24 hours post dose thereafter.\nSerum concentration of ZA was determined using a qualified LC-MS-MS assay after derivatization with diazomethane (Zhu, L S et al. (2006) Rapid Commun. Mass Spectrom. 20: 3421-3426; “Qualification Data of An LC-MS/MS Method for the Determination of Zoledronate in Porcine Serum”, MDS Pharma Services Study No. AA43671-01, Report Date 14 Sep. 2007). The assay range was from 2.0 to 400 ng/mL with a lower limit of quantitation (LLOQ) at 2.0 ng/mL. Urine concentration of ZA was determined by a similar well qualified LC-MS-MS method (“Qualification Data of An LC-MS/MS Method for the Determination of Zoledronate in Porcine Urine”, MDS Pharma Services Study No. AA43671-02, Report Date 14 Sep. 2007) with an assay LLOQ at 10 ng/mL.\nPharmacokinetic (PK) analyses of ZA serum concentration versus time data were conducted using WinNonlin v5.1 (Pharsight, Mountain View, Calif.). Non-compartmental analysis was used for derivation of primary and secondary pharmacokinetic (PK) parameters. AUC, Cmax, and Tmax were compared between dose routes, between co-administration with rHuPH20, and with dose of rHuPH20.", "note": "Like-named read-outs stand apart in the source and are kept apart here."}
{"molecule": "O=P(O)(O)C(O)(Cn1ccnc1)P(=O)(O)O", "note": "[ZA, 1-hydroxy-2-(1H-imidazol-1-yl)ethylidene-1,1-bisphosphonic acid]", "values": [{"measurement": "bioavailability", "setting": "read-out: SC Bioavailability (0-8 h), mean", "value": "87.7 ± 15", "unit": "%"}, {"measurement": "bioavailability", "setting": "read-out: SC Bioavailability (0-8 h), median", "value": 86.9, "unit": "%"}, {"measurement": "Tmax", "setting": "read-out: Tmax, mean", "value": 12.6, "unit": "min"}, {"measurement": "Tmax", "setting": "read-out: Tmax, median", "value": 10.2, "unit": "min"}, {"measurement": "half-life", "setting": "read-out: T½ λz, mean (converted)", "value": "64.2 ± 14.4", "unit": "min"}, {"measurement": "half-life", "setting": "read-out: T½ λz, median (converted)", "value": 59.4, "unit": "min"}, {"measurement": "Vd/F", "setting": "read-out: Vss/F, mean", "value": 0.607, "unit": "L/kg"}, {"measurement": "Vd/F", "setting": "read-out: Vss/F, median", "value": 0.625, "unit": "L/kg"}, {"measurement": "Vd/F", "setting": "read-out: Vz/F, mean", "value": 0.784, "unit": "L/kg"}, {"measurement": "Vd/F", "setting": "read-out: Vz/F, median", "value": 0.832, "unit": "L/kg"}, {"measurement": "concentration at 0.05 h", "setting": "pig ID 59, 100 mL, 16 min", "value": 13.9, "unit": "ng/mL"}, {"measurement": "concentration at 0.05 h", "setting": "pig ID 60, 100 mL, 16 min", "value": 51.5, "unit": "ng/mL"}, {"measurement": "concentration at 0.05 h", "setting": "pig ID 62, 50 mL, 8 min", "value": 97.6, "unit": "ng/mL"}, {"measurement": "concentration at 0.05 h", "setting": "pig ID 69, 25 mL, 4 min", "value": 144, "unit": "ng/mL"}, {"measurement": "concentration at 0.05 h", "setting": "pig ID 70, 10 mL, 1.6 min", "value": 174, "unit": "ng/mL"}, {"measurement": "concentration at 5 min", "setting": "pig ID 59, 100 mL, 16 min", "value": 32.4, "unit": "ng/mL"}, {"measurement": "concentration at 5 min", "setting": "pig ID 60, 100 mL, 16 min", "value": 85, "unit": "ng/mL"}, {"measurement": "concentration at 0.333 h", "setting": "pig ID 59, 100 mL, 16 min", "value": 130, "unit": "ng/mL"}, {"measurement": "concentration at 0.333 h", "setting": "pig ID 60, 100 mL, 16 min", "value": 255, "unit": "ng/mL"}, {"measurement": "concentration at 0.333 h", "setting": "pig ID 62, 50 mL, 8 min", "value": 208, "unit": "ng/mL"}, {"measurement": "concentration at 0.333 h", "setting": "pig ID 69, 25 mL, 4 min", "value": 210, "unit": "ng/mL"}, {"measurement": "concentration at 0.333 h", "setting": "pig ID 70, 10 mL, 1.6 min", "value": 233, "unit": "ng/mL"}, {"measurement": "concentration at 0.5 h", "setting": "pig ID 59, 100 mL, 16 min", "value": 120, "unit": "ng/mL"}, {"measurement": "concentration at 0.5 h", "setting": "pig ID 60, 100 mL, 16 min", "value": 211, "unit": "ng/mL"}, {"measurement": "concentration at 0.5 h", "setting": "pig ID 62, 50 mL, 8 min", "value": 149, "unit": "ng/mL"}, {"measurement": "concentration at 0.5 h", "setting": "pig ID 69, 25 mL, 4 min", "value": 115, "unit": "ng/mL"}, {"measurement": "concentration at 0.5 h", "setting": "pig ID 70, 10 mL, 1.6 min", "value": 191, "unit": "ng/mL"}, {"measurement": "concentration at 1 h", "setting": "pig ID 59, 100 mL, 16 min", "value": 44.6, "unit": "ng/mL"}, {"measurement": "concentration at 1 h", "setting": "pig ID 60, 100 mL, 16 min", "value": 149, "unit": "ng/mL"}, {"measurement": "concentration at 1 h", "setting": "pig ID 62, 50 mL, 8 min", "value": 81.6, "unit": "ng/mL"}, {"measurement": "concentration at 1 h", "setting": "pig ID 69, 25 mL, 4 min", "value": 74.6, "unit": "ng/mL"}]}
